Earlier results on two molecules are cited in patent US6475518B1, “Methods and compositions for treatment of disorders associated with chlamydia and similar bacterial infection” (priority 1998, dated 2002).

The subject of data set [1] is C. pneumoniae. To be noted: Gurfinkel E, et al., Lancet 1997; limited numbers, no prolonged follow-up yet.
Data set [2] concerns C. pneumoniae. To be noted: Gupta S, et al., Circulation 1997.

For the molecule `CC[C@H]1OC(=O)[C@H](C)[C@@H](O[C@H]2C[C@@](C)(OC)[C@@H](O)[C@H](C)O2)[C@H](C)[C@@H](O[C@@H]2O[C@H](C)C[C@H](N(C)C)[C@H]2O)[C@](C)(O)C[C@@H](C)/C(=N\OCOCCOC)[C@H](C)[C@@H](O)[C@]1(C)O` [roxithromycin], in the data set with C. pneumoniae [1], the “Clinical benefit of sole therapy” value is “a benefit was described”.

On to `CC[C@H]1OC(=O)[C@H](C)[C@@H](O[C@H]2C[C@@](C)(OC)[C@@H](O)[C@H](C)O2)[C@H](C)[C@@H](O[C@@H]2O[C@H](C)C[C@H](N(C)C)[C@H]2O)[C@](C)(O)C[C@@H](C)CN(C)[C@H](C)[C@@H](O)[C@]1(C)O` [azithromycin], for which the “Clinical benefit of monotherapy” value with C. pneumoniae [2] was “the benefit was not sustained after initial therapy”.
